Laboratory results as given in PMC9115767 (European journal of medicinal chemistry, 2021).
Read-outs that look alike come from different tables or passages of the source.

Columns and labels:
[1] = tested on: HIV-1 IIIB; type: cell-based
[2] = tested on: HIV-2 ROD; experiment: microbe, parasite or virus in culture; type: cell-based
[3] = in vitro; settings: human, microsomes
[4] = tested on: MT-4 cells
[5] = selectivity index, ratio CC50/EC50, HIV-1 IIIB
[6] = selectivity index, ratio CC50/EC50, HIV-2 ROD

## COc1ccc(N(C)C(=O)[C@H](Cc2ccccc2)NC(=O)CN2CCN(CC(=O)N[C@@H](Cc3ccccc3)C(=O)N(C)c3ccc(OC)cc3)C(=O)C2)cc1 [Q-c1, (2S,2′S)-2,2'-((2,2'-(2-oxopiperazine-1,4-diyl)bis(acetyl))bis(azanediyl)) bis(N-(4-methoxyphenyl)-N-methyl-3-phenylpropanamide)]
[1]
  SI HIV IIIB: ≤4.29
[2]
  SI HIV ROD: <1.00

## COc1ccc(N(C)C(=O)[C@H](Cc2ccccc2)NC(=O)CN2CCN(CC(=O)N[C@@H](Cc3ccccc3)C(=O)N(C)c3ccccc3)C(=O)C2)cc1 [Q-c9, (S)–N-(4-methoxyphenyl)-N-methyl-2-(2-(4-(2-(((S)-1-(methyl(phenyl)amino)-1-oxo-3-phenylpropan-2-yl)amino)-2-oxoethyl)-3-oxopiperazin-1-yl)acetamido)-3-phenylpropanamide]
[1]; [5]
  SI HIV IIIB: ≤6.45
[2]; [6]
  SI HIV ROD: <1.00

## CN(C(=O)[C@H](Cc1ccccc1)NC(=O)CN1CCN(CC(=O)N[C@@H](Cc2ccccc2)C(=O)N(C)c2ccccc2)C(=O)C1)c1ccccc1 [Q-c7, (2S,2′S)-2,2'-((2,2'-(2-oxopiperazine-1,4-diyl)bis(acetyl))bis(azanediyl)) bis(N-methyl-N,3-diphenylpropanamide)]
[1]
  SI HIV IIIB: <1.00
[2]
  SI HIV ROD: <1.00
[2]; Human immunodeficiency virus 2, MT4, read-out: EC50 HIV ROD
  EC50: > 32.6 µM

## COc1ccc(N(C)C(=O)[C@H](Cc2ccccc2)NC(=O)CN2CCN(CC(=O)N[C@@H](Cc3cc(F)cc(F)c3)C(=O)N(C)c3ccc(OC)cc3)C(=O)C2)cc1 [Q-c5, (S)-3-(3,5-difluorophenyl)-N-(4-methoxyphenyl)-2-(2-(4-(2-(((S)-1-((4-methoxyphenyl)(methyl)amino)-1-oxo-3-phenylpropan-2-yl)amino)-2-oxoethyl)-2-oxopiperazin-1-yl)acetamido)-N-methyl-propanamide]
[2]; [6]
  SI HIV ROD: <1.00

## COc1ccc(N(C)C(=O)[C@H](Cc2ccccc2)NC(=O)CN2CCNCC2=O)cc1 [Q-b2, (S)–N-(4-methoxyphenyl)-N-methyl-2-(2-(2-oxopiperazin-1-yl)acetamido)-3-phenylpropanamide]
[1]; [5]
  SI HIV IIIB: >3.30
[2]; [6]
  SI HIV ROD: >8.94

## COc1ccc(N(C)C(=O)[C@H](Cc2cc(F)cc(F)c2)NC(=O)CN2CCN(CC(=O)N[C@@H](Cc3ccccc3)C(=O)N(C)c3ccccc3)CC2=O)cc1 [Q-c6, (S)-3-(3,5-difluorophenyl)-N-(4-methoxyphenyl)-N-methyl-2-(2-(4-(2-(((S)-1-(methyl(phenyl)amino)-1-oxo-3-phenylpropan-2-yl)amino)-2-oxoethyl)-2-oxopiperazin-1-yl)acetamido)propenamide]
[2]
  SI HIV ROD: <1.00

## COc1ccc(N(C)C(=O)[C@H](Cc2cc(F)cc(F)c2)NC(=O)CN2CC(=O)N(CC(=O)N[C@@H](Cc3cc(F)cc(F)c3)C(=O)N(C)c3ccc(OC)cc3)CC2=O)cc1 [Q-a2, (2S,2S)-22′-((2,2'-(2,5'-dioxopiperazine-1,4-diyl)bis(acetyl))bis(azanediyl)) bis(3-(3,5-di-N-difluorophenyl)-N-(4-methoxyphenyl)-N-methylpropanamide)]
[3]
  CLint scaled at 3 h, 100 µM: 760 mL/min/kg

## COc1ccc(N(C)C(=O)[C@H](Cc2ccccc2)NC(=O)CN2CC(=O)N(CC(=O)N[C@@H](Cc3ccccc3)C(=O)N(C)c3ccc(OC)cc3)CC2=O)cc1 [Q-a1, (2S,2′S)-2,2'-((2,2'-(2,5-dioxopiperazine-1,4-diyl)bis(acetyl))bis(azanediyl)) bis(N-(4-methoxyphenyl)-N-methyl-3-phenylpropanamide)]
[2]
  SI HIV ROD: <1.00

## CN(C(=O)[C@H](Cc1ccccc1)NC(=O)CN1CCNCC1=O)c1ccccc1 [Q-b1, (S)–N-methyl-2-(2-(2-oxopiperazin-1-yl)acetamido)-N,3-diphenyl propanamide]
[1]
  SI HIV IIIB: >1.28
[4]
  CC50: > 317 µM
[2]
  SI HIV ROD: >1.19

## COc1ccc(N(C)C(=O)[C@H](Cc2ccccc2)NC(=O)CN2CCN(CC(=O)N[C@@H](Cc3ccccc3)C(=O)N(C)c3ccccc3)CC2=O)cc1 [Q-c3, (S)–N-(4-methoxyphenyl)-N-methyl-2-(2-(4-(2-(((S)-1-(methyl(phenyl)amino)-1-oxo-3-phenylpropan-2-yl)amino)-2-oxoethyl)-2-oxopiperazin-1-yl)acetamido)-3-phenylpropanamid]
[1]; [5]
  SI HIV IIIB: <1.00
[2]; [6]
  SI HIV ROD: <1.00

## COc1ccc(N(C)C(=O)[C@H](Cc2cc(F)cc(F)c2)NC(=O)CN2CCN(CC(=O)N[C@@H](Cc3ccccc3)C(=O)N(C)c3ccccc3)C(=O)C2)cc1 [Q-c8, (S)-3-(3,5-difluorophenyl)-N-(4-methoxyphenyl)-N-methyl-2-(2-(4-(2-(((S)-1-(methyl(phenyl)amino)-1-oxo-3-phenylpropan-2-yl)amino)-2-oxoethyl)-3-oxopiperazin-1-yl)acetamido)propenamide]
[2]
  SI HIV ROD: <1.00

## COc1ccc(N(C)C(=O)[C@H](Cc2cc(F)cc(F)c2)NC(=O)CN2CCN(CC(=O)N[C@@H](Cc3ccccc3)C(=O)N(C)c3ccc(OC)cc3)C(=O)C2)cc1 [Q-c2, (S)-3-(3,5-difluorophenyl)-N-(4-methoxyphenyl)-2-(2-(4-(2-(((S)-1-((4-methoxyphenyl)(methyl)amino)-1-oxo-3-phenylpropan-2-yl)amino)-2-oxoethyl)-3-oxopiperazin-1-yl)acetamido)-N-methylpropanamide]
[2]; [6]
  SI HIV ROD: <1.00

## COc1ccc(N(C)C(=O)[C@H](Cc2ccccc2)NC(=O)CN2CCN(S(=O)(=O)c3ccc(N)cc3)CC2=O)cc1 [Compound 11l, reference compound]
[3]
  CLint scaled at 3 h, 100 µM: 356 mL/min/kg
